Measured values taken from patent publication US7071341B2, “α-Glucosidase inhibitors and their synthesis from a natural source” (Council of Scientific and Industrial Research, priority 2003, dated 2006).
“Also recorded” adds a separate entry of the source.

Columns and labels:
yeast α-glucosidase = test: α-glucosidase inhibitory assay by the chromogenic method; type: biochemical; details: for IC50: yeast α-glucosidase [Sigma], substrate p-nitrophenyl-α-D-glucopyranoside, pH 7.00, absorbance at 405 nm; for α-glucosidase inhibitory potency compared with the standard drug 1-deoxy nojirimycin: comparison in words
Procedure: The α-glucosidase inhibitory assay was done by the chromogenic method. In brief 10 μl of test compounds dissolved in DMSO (5 mg/ml and subsequent dilutions) were incubated for 5 min. with 50 μl of yeast α-glucosidase [Sigma] enzyme prepared in 100 mM phosphate buffer (pH 7.00). After 5 minutes of incubation, 50 μl of 5 mM substrate (p-nitrophenyl-α-D-glucopyranoside [Sigma] prepared in the same buffer) was added. The pre-substrate and 5-min post-substrate addition absorbances were recorded at 405 nm spectrophotometrically. The increase in absorbance from pre-substrates addition to post substrates reaction were obtained.

Compound | IC50 (yeast α-glucosidase) [µM] | melting point [°C] | other results
O=C(OC1Cc2ccc(O)c(O)c2OC1c1ccc(O)c(O)c1)c1ccccc1Cl (single isomer, unassigned; (-)) [Compound 4I, (−)-3-O-(o-chlorobenzoyl) mesquitol] | 43.3 | 252 | 
CCCCCCCCCCCCCC(=O)OC1Cc2ccc(O)c(O)c2OC1c1ccc(O)c(O)c1 (single isomer, unassigned; (-)) [Compound 4e, (−)-3-O-myristoyl mesquitol] | 12.6 | 83 | α-glucosidase inhibitory potency compared with the standard drug 1-deoxy nojirimycin (yeast α-glucosidase; listed as myristoyl ester of (−) mesquitol): more potent α-glucosidase inhibitors than the standard drug 1-deoxy nojirimycin; also recorded: more potent than the standard α-glucosidase inhibitor 1-deoxy nojirimycin
CCCCCCCCCCCCCCCC(=O)OC1Cc2ccc(O)c(O)c2OC1c1ccc(O)c(O)c1 (single isomer, unassigned; (-)) [Compound 4f, (−)-3-O-Palmitoyl mesquitol] | 9.56 | 87 | α-glucosidase inhibitory potency compared with the standard drug 1-deoxy nojirimycin (yeast α-glucosidase; listed as palmitoyl ester of (−) mesquitol): more potent α-glucosidase inhibitors than the standard drug 1-deoxy nojirimycin; also recorded: more potent than the standard α-glucosidase inhibitor 1-deoxy nojirimycin
CCCCCCCCCCCCCCCCCC(=O)OC1Cc2ccc(O)c(O)c2OC1c1ccc(O)c(O)c1 (single isomer, unassigned; (-)) [Compound 4g, (−)-3-O-Steroyl mesquitol] | 54.5 | 90 | 
COc1ccc(C(=O)OC2Cc3ccc(O)c(O)c3OC2c2ccc(O)c(O)c2)cc1 (single isomer, unassigned; (-)) [Compound 4j, (−)-3-O-(p-methoxybenzoyl) mesquitol] | 67.3 | 254 | 
CCCCCCCCCC(=O)O[C@H]1Cc2ccc(O)c(O)c2O[C@@H]1c1ccc(O)c(O)c1 [Compound 4d, (−)-3-O-Decanoyl mesquitol] | 13.5 |  | α-glucosidase inhibitory potency compared with the standard drug 1-deoxy nojirimycin (yeast α-glucosidase; listed as decanoyl ester of (−) mesquitol): more potent α-glucosidase inhibitors than the standard drug 1-deoxy nojirimycin; also recorded: more potent than the standard α-glucosidase inhibitor 1-deoxy nojirimycin

The next lines start with results.

IC50 (yeast α-glucosidase) [µM] | melting point [°C] | Compound | other results
82.3 | 252 | Oc1ccc(C2Oc3c(ccc(O)c3O)CC2O)cc1O (single isomer, unassigned; (-)) [Compound 1, (−)-mesquitol] | α-glucosidase inhibitory activity, in words (yeast α-glucosidase): potent α-glucosidase inhibitory activity
46.3 | 78 | CC(=O)OC1Cc2ccc(O)c(O)c2OC1c1ccc(O)c(O)c1 (single isomer, unassigned; (-)) [Compound 4a, (−)-3-O-acetyl mesquitol] | 
46.2 | 80 | CCCC(=O)OC1Cc2ccc(O)c(O)c2OC1c1ccc(O)c(O)c1 (single isomer, unassigned; (-)) [Compound 4b, (−)-3-O-butyryl mesquitol] | 
49.3 | 81 | CCCCCC(=O)OC1Cc2ccc(O)c(O)c2OC1c1ccc(O)c(O)c1 (single isomer, unassigned; (-)) [Compound 4c, (−)-3-O-hexanoyl mesquitol] | 
77.8 | 248 | O=C(OC1Cc2ccc(O)c(O)c2OC1c1ccc(O)c(O)c1)c1ccccc1 (single isomer, unassigned; (-)) [Compound 4h, (−)-3-O-benzoyl mesquitol] | α-glucosidase inhibitory potency compared with the standard drug 1-deoxy nojirimycin (yeast α-glucosidase; listed as benzoyl ester of (−) mesquitol): more potent α-glucosidase inhibitor than the standard drug 1-deoxy nojirimycin
32.8 |  | O=C(O[C@H]1Cc2ccc(O)c(O)c2O[C@@H]1c1ccc(O)c(O)c1)c1ccc(F)cc1 [Compound 4k, (−)-3-O-(p-flourobenzoyl) mesquitol] | α-glucosidase inhibitory potency compared with the standard drug 1-deoxy nojirimycin (yeast α-glucosidase; listed as p-flourobenzyl ester of (−) mesquitol): more potent α-glucosidase inhibitor than the standard drug 1-deoxy nojirimycin
